Results reported in patent US11235976B2, “Nanocarbon-iron composite system as well as composition, preparation method and use thereof” (Chongqing Lummy Pharmaceutical Co., LTD, priority 2017, dated 2022).

Key:
Assay in all cases: Cell experiment, cell survival rate
Type in all cases: cell-based
[1] = system: SGC-7901 stomach cancer cells; conditions: 48 h
Procedure: (§1) Cells growing in a log phase are collected, the concentration of the cell suspension is adjusted, 100 μL of cell suspension is added to each well and the cells are plated (edge wells are filled with sterile PBS) at a density of 1×10^3-10^4 cells/well. The cells are incubated for 24 hours at 37° C. under the condition of 5% CO2, a nanocarbon-iron solution having a concentration gradient (nanocarbon content: 125, 62.5, 15.63 and 3.91 μg/mL; and ferric ion content: 13.65, 6.83, 1.71 and 0.43 μg/mL) is added, and three sub-wells are set. Then the cells are incubated for 48 hours at 37° C. under the condition of 5% CO2. 10 μL of CCK8 solution is added to each well and then the cells are continuously incubated for 2 hours. The absorbance of each well is measured at OD=450 nm with the microplate reader. In addition, a negative control group, nanocarbon control groups having the same concentration and iron preparation control groups having the same concentration are set.
as §1, with “and 1” for “100”, “of a 6-well plate” for “and the cells are plated (edge wells are filled with sterile PBS)”, “3×10^4” for “1×10^3-10^4”, “1.71,” for “1.71 and”, “The” for “10 μL of CCK8 solution is added to each well and then the”, “trypsinized and counted.” for “continuously incubated for 2 hours. The absorbance of each well is measured at OD=450 nm with the microplate reader.”

[2] = system: MDA-MB-231 breast cancer cells; conditions: 48 h
Procedure: as §1
as §1, with “and 1” for “100”, “of a 6-well plate” for “and the cells are plated (edge wells are filled with sterile PBS)”, “3×10^4” for “1×10^3-10^4”, “1.71,” for “1.71 and”, “The” for “10 μL of CCK8 solution is added to each well and then the”, “trypsinized and counted.” for “continuously incubated for 2 hours. The absorbance of each well is measured at OD=450 nm with the microplate reader.”

[3] = system: TPC-1 thyroid cancer cells; conditions: 48 h
Procedure: as §1
as §1, with “and 1” for “100”, “of a 6-well plate” for “and the cells are plated (edge wells are filled with sterile PBS)”, “3×10^4” for “1×10^3-10^4”, “1.71,” for “1.71 and”, “The” for “10 μL of CCK8 solution is added to each well and then the”, “trypsinized and counted.” for “continuously incubated for 2 hours. The absorbance of each well is measured at OD=450 nm with the microplate reader.”

[4] = system: SMMC7721 liver cancer cells; conditions: SMMC-7721, 48 h
Procedure: as §1
as §1, with “and 1” for “100”, “of a 6-well plate” for “and the cells are plated (edge wells are filled with sterile PBS)”, “3×10^4” for “1×10^3-10^4”, “1.71,” for “1.71 and”, “The” for “10 μL of CCK8 solution is added to each well and then the”, “trypsinized and counted.” for “continuously incubated for 2 hours. The absorbance of each well is measured at OD=450 nm with the microplate reader.”

A549 lung cancer cells = conditions: 48 h
Procedure: as §1
as §1, with “and 1” for “100”, “of a 6-well plate” for “and the cells are plated (edge wells are filled with sterile PBS)”, “3×10^4” for “1×10^3-10^4”, “1.71,” for “1.71 and”, “The” for “10 μL of CCK8 solution is added to each well and then the”, “trypsinized and counted.” for “continuously incubated for 2 hours. The absorbance of each well is measured at OD=450 nm with the microplate reader.”

[5] = system: Hela cervical cancer cells; conditions: 48 h
Procedure: as §1
as §1, with “and 1” for “100”, “of a 6-well plate” for “and the cells are plated (edge wells are filled with sterile PBS)”, “3×10^4” for “1×10^3-10^4”, “1.71,” for “1.71 and”, “The” for “10 μL of CCK8 solution is added to each well and then the”, “trypsinized and counted.” for “continuously incubated for 2 hours. The absorbance of each well is measured at OD=450 nm with the microplate reader.”

[6] = iron preparation alone 0.43 μg/mL
[7] = iron preparation alone 1.71 μg/mL
[8] = iron preparation alone 6.83 μg/mL
[9] = iron preparation alone 13.65 μg/mL

Measured: Cell Survival Rate

ferrous gluconate
98.34%: [3]; [9]
97.68%: [4]; [8]
100%: [1]; [6] | [1]; [7] | [2]; [6] | [2]; [7] | [2]; [8] | [2]; [9] | [3]; [6] | [3]; [7] | [3]; [8] | [4]; [6] | [4]; [9] | A549 lung cancer cells; [6] | A549 lung cancer cells; [7] | A549 lung cancer cells; [8] | [5]; [6] | [5]; [7] | [5]; [8]
99.48%: [1]; [8]
97.86%: [5]; [9]
97.43%: [1]; [9]
96.12%: [4]; [7]
97.31%: A549 lung cancer cells; [9]
